Source: patent publication EP3046573B1, “AMYLIN ANALOGUES” (Zealand Pharma A/S, priority 2013, dated 2015)
pEC50: −log10 of the molar value. Numbered stars: 1 amine (or outer) side, 2 acyl side, 3 side chain; on linkers, the order of the positions; unused ones are H or OH. Bridge positions count the residues as written; N and C are the ends. Square brackets hold non-standard residues; d marks the D form. Peptide text beside a SMILES is read from it. * marks the point of attachment. C20 diacid = O=C(O)CCCCCCCCCCCCCCCCCCC(=O)*; γGlu = O=C(O)[C@H](CCC(=O)[*:2])N[*:1]; NMeI = CC[C@H](C)[C@H](NC)C(=O)O; Sar = CNCC(=O)O

Columns and labels:
[1] = Solubility assessment (turbidity absorbance at 325 nm); assay type: physicochemical; settings: stock 2 mg/ml diluted 1:1, ambient temperature (typically 25°C), n=1; for Solubility, Acetate buffer pH 4: 100 mM acetate buffer pH 4.0; for Solubility, Acetate buffer pH 5: 100 mM acetate buffer pH 5.0; for Solubility, Histidine buffer pH 6: 100 mM histidine buffer pH 6.0; for Solubility, Histidine buffer pH 7: 100 mM histidine buffer pH 7.0; for Solubility, Phosphate buffer pH 6: 100 mM phosphate buffer pH 6.0; for Solubility, Phosphate buffer pH 7: 100 mM phosphate buffer pH 7.0; for Solubility, Phosphate buffer pH 7.5: 100 mM phosphate buffer pH7.5
In short: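 Peptide stock (2 mg/ml, water pH 2.5) diluted 1:1 into 100 mM acetate (pH 4.0, 5.0), histidine (pH 6.0, 7.0) or phosphate (pH 6.0–7.5) buffer; absorbance at 325 nm read at about 25°C, n=1. A325 ≤ 0.02 taken as solubility ≥ 1 mg/ml.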

[2] = molecular target: T1, human calcitonin receptor (hCTR2) (Homo sapiens, UniProt P30988); assay: hCTR2 assay: induction of cAMP (AlphaScreen cAMP Assay kit) in COS7 cells expressing hCTR2; assay type: cell-based; settings: cAMP induction in COS7 cells expressing hCTR2; average of a minimum of 3 determinations; read-out: hCTR2 EC50
T1 construct: expressed in transfected cells
T1 sequence (P30988 25-474): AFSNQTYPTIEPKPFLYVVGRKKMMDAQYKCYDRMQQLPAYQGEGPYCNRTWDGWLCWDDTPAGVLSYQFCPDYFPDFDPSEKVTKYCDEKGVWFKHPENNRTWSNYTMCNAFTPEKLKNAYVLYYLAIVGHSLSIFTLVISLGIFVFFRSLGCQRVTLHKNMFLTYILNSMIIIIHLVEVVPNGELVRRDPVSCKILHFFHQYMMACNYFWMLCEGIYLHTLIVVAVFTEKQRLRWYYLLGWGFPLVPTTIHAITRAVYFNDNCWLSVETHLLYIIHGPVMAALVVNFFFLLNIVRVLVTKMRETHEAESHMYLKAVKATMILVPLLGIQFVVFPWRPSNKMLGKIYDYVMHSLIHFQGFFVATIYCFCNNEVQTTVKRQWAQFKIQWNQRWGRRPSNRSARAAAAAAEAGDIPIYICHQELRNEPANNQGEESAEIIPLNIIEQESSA
In short: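 Functional agonism is measured as cAMP accumulation in a COS7 line stably transfected with hCTR2, lacking endogenous RAMPs. Peptides act for 15 min at 37° C with IBMX present, and curves are fitted with a 4-parameter logistic model.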

| Solubility, Acetate buffer pH 4 [1] | Solubility, Acetate buffer pH 5 [1] | Solubility, Histidine buffer pH 6 [1] | Solubility, Histidine buffer pH 7 [1] | Solubility, Phosphate buffer pH 6 [1] | Solubility, Phosphate buffer pH 7 [1] | Solubility, Phosphate buffer pH 7.5 [1] | pEC50 [2] | Structure (SMILES) |
| --- | --- | --- | --- | --- | --- | --- | --- | --- |
| SS (SS indicates solubility ≥ 1mg/ml) | SS (SS indicates solubility ≥ 1mg/ml) | SS (SS indicates solubility ≥ 1mg/ml) | SS (SS indicates solubility ≥ 1mg/ml) | SS (SS indicates solubility ≥ 1mg/ml) | SS (SS indicates solubility ≥ 1mg/ml) | SS (SS indicates solubility ≥ 1mg/ml) | 9.92 | CC[C@H](C)[C@@H](C(=O)N[C@@H](CC(C)C)C(=O)N[C@@H](CO)C(=O)N[C@@H](CO)C(=O)N[C@H](C(=O)N[C@@H](CC(N)=O)C(=O)N[C@H](C(=O)NCC(=O)N[C@@H](CO)C(=O)N[C@@H](CC(N)=O)C(=O)N[C@H](C(=O)N1CCC[C@H]1C(N)=O)[C@@H](C)O)C(C)C)[C@@H](C)O)N(C)C(=O)CN(C)C(=O)[C@H](Cc1ccccc1)NC(=O)[C@H](CC(N)=O)NC(=O)[C@H](CC(N)=O)NC(=O)[C@H](Cc1c[nH]cn1)NC(=O)[C@H](Cc1c[nH]cn1)NC(=O)[C@H](CC(C)C)NC(=O)[C@H](Cc1ccccc1)NC(=O)[C@H](CCC(=O)O)NC(=O)[C@H](C)NC(=O)[C@H](CC(C)C)NC(=O)[C@H](CCCNC(=N)N)NC(=O)[C@H](CCC(N)=O)NC(=O)[C@@H](NC(=O)[C@H](C)NC(=O)[C@@H]1CSSC[C@H](NC(=O)[C@H](CCCNC(=N)N)NC(=O)CC[C@H](NC(=O)CCCCCCCCCCCCCCCCCCC(=O)O)C(=O)O)C(=O)N[C@@H](CC(N)=O)C(=O)N[C@@H]([C@@H](C)O)C(=O)N[C@@H](C)C(=O)N[C@@H]([C@@H](C)O)C(=O)N1)[C@@H](C)O [Compound 48, [19CD]-isoGlu-RC()NTATC()ATQRLAEFLHHNNF-Gly(Me)-Ile(Me)-LSSTNVGSNTP-NH2] ({C20 diacid-γGlu}-RCNTATCATQRLAEFLHHNNF[Sar][NMeI]LSSTNVGSNTP-NH2; disulfide 2-7) |
| II (II indicates solubility ≤ 1 mg/ml) | II (II indicates solubility ≤ 1 mg/ml) | II (II indicates solubility ≤ 1 mg/ml) | II (II indicates solubility ≤ 1 mg/ml) | II (II indicates solubility ≤ 1 mg/ml) | II (II indicates solubility ≤ 1 mg/ml) | II (II indicates solubility ≤ 1 mg/ml) | 9.85 | CC[C@H](C)[C@@H](C(=O)N[C@@H](CC(C)C)C(=O)N[C@@H](CO)C(=O)N[C@@H](CO)C(=O)N[C@H](C(=O)N[C@@H](CC(N)=O)C(=O)N[C@H](C(=O)NCC(=O)N[C@@H](CO)C(=O)N[C@@H](CC(N)=O)C(=O)N[C@H](C(=O)N1CCC[C@H]1C(N)=O)[C@@H](C)O)C(C)C)[C@@H](C)O)N(C)C(=O)[C@H](C)NC(=O)[C@H](Cc1ccccc1)NC(=O)[C@H](CC(N)=O)NC(=O)[C@H](CC(N)=O)NC(=O)[C@H](CO)NC(=O)[C@H](CO)NC(=O)[C@H](Cc1c[nH]cn1)NC(=O)[C@H](Cc1c[nH]cn1)NC(=O)[C@H](CC(C)C)NC(=O)[C@H](Cc1ccccc1)NC(=O)[C@H](CCC(=O)O)NC(=O)[C@H](C)NC(=O)[C@H](CC(C)C)NC(=O)[C@H](CCCNC(=N)N)NC(=O)[C@H](CCC(N)=O)NC(=O)[C@@H](NC(=O)[C@H](C)NC(=O)[C@@H]1CSSC[C@H](NC(=O)[C@H](CCCNC(=N)N)NC(=O)CC[C@H](NC(=O)CCCCCCCCCCCCCCCCCCC(=O)O)C(=O)O)C(=O)N[C@@H](CC(N)=O)C(=O)N[C@@H]([C@@H](C)O)C(=O)N[C@@H](C)C(=O)N[C@@H]([C@@H](C)O)C(=O)N1)[C@@H](C)O [Compound 49, [19CD]-isoGlu-RC()NTATC()ATQRLAEFLHHSSNNFA-Ile(Me)-LSSTNVGSNTP-NH2] ({C20 diacid-γGlu}-RCNTATCATQRLAEFLHHSSNNFA[NMeI]LSSTNVGSNTP-NH2; disulfide 2-7) |
